Test results: US20110306597A1, “Nicotinamide Derivatives” (priority 2008, published 2011)

Target: human recombinant H-PGDS (Homo sapiens, UniProt O60760)
Assay: Fluorescence Intensity h-PGDS TBA Enzyme Assay
Format: biochemical
Conditions: 1:175,000 human recombinant H-PGDS, highest inhibitor concentration typically 1 μM
Protocol: Fluorescence Intensity h-PGDSTBA Enzyme Assay
Prostaglandin D Synthase (PGDS) converts the substrate prostaglandin H2 (PGH2) to prostaglandin D2. The depletion of PGH2 was measured via an Fe(II) reduction of the remaining PGH2 to malondialdehyde (MDA) and 12-HHT. The enzyme assay is based on the quantitative formation of a fluorescent complex from the non-fluorescent compounds MDA and 2-thiobarbituric acid (TBA), substantially as described in U.S. patent application publication US-2004/152148 by Lombardt.
The enzyme assay (31 μls) contained 100 mM Tris base pH 8.0, 100 μM MgCl2, 0.1 mg/ml IgG Rabbit serum, 5.0 μM PGH2 (Cayman; ethanol solution, #17020), 2.5 mM L-Glutathione (Sigma; reduced form #G4251), 1:175,000 human recombinant H-PGDS (from 1 mg/ml), 0.5% DMSO and inhibitor (varying concentration). Three μls of diluted inhibitor (dissolved in DMSO) was plated into a 384-well assay plate followed by a 25 μl addition of an enzyme solution containing h-PGDS, Tris, MgCl2, IgG and L-Glutathione. After preincubation of inhibitor and enzyme solution for 10 minutes at room temperature, the reaction was initiated with a 3 μl addition of substrate solution in 10 mM HCl. The reaction was terminated after 42 second by the addition (3 μl) of stop buffer containing FeCl2 and citric acid. After addition of 45.5 μls of TBA plates were heated for one hour in a 70 C oven. Plates were cooled at room temperature overnight and read on a plate reader the next day with excitation @ 530 nm and emission @ 565 nm.
IC50's of inhibitors were calculated with a 4-parameter fit using 11 inhibitor concentrations in duplicate with 3-fold serial dilutions. Controls on each plate included no inhibitor (zero % effect) and an inhibitor 10-fold in excess of its' IC50 (100% effect). The highest inhibitor concentration tested was typically 1 μM.

human recombinant H-PGDS, sequence (O60760 whole entry): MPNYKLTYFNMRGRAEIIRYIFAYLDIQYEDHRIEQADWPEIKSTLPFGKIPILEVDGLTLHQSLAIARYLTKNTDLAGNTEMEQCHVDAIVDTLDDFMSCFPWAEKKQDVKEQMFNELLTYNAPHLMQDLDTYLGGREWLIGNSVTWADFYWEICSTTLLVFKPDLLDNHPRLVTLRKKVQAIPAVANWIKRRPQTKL

Row | Compound | IC50 [nM]
1 | 6-(3-Fluorophenyl)-N-(3- hydroxypropyl)nicotinamide [Example 435] | 49.5
2 | Cc1ccc2nc(CCNC(=O)c3ccc(-c4cccc(F)c4)nc3)cn2c1 [Example 1, 6-(3-Fluorophenyl)-N-[2-(6-methylimidazo[1,2-a]pyridin-2-yl)ethyl]nicotinamide] | 3.54
3 | Cc1cccnc1CC(C)NC(=O)c1ccc(-c2cccc(F)c2)nc1 (stereo not shown) [Example 3, 6-(3-Fluorophenyl)-N-[1-methyl-2-(3-methylpyridin-2-yl)ethyl]nicotinamide] | 2.89
4 | O=C(NCCc1cn2cccnc2n1)c1ccc(-c2cccc(F)c2)nc1 [Example 6, 6-(3-Fluorophenyl)-N-(2-imidazo[1,2-a]pyrimidin-2-ylethyl)nicotinamide] | 13
5 | N#CC(NC(=O)c1ccc(-c2cccc(F)c2)nc1)c1ccccc1 (stereo not shown) [Example 8, N-[Cyano(phenyl)methyl]-6-(3-fluorophenyl)nicotinamide] | 25.7
6 | O=C(NC[C@H]1CC[C@H](c2nnc(C3CC3)[nH]2)CC1)c1ccc(-c2cccc(F)c2)nc1 [Example 9, N-{[trans-4-(5-Cyclopropyl-4H-1,2,4-triazol-3-yl)cyclohexyl]methyl}-6-(3-fluorophenyl)nicotinamide] | 83.6
7 | CN1CCc2nc(N3CCC(CNC(=O)c4ccc(-c5cccc(F)c5)nc4)CC3)ncc2C1 [Example 10, 6-(3-Fluorophenyl)-N-{[1-(6-methyl-5,6,7,8-tetrahydropyrido[4,3-d]pyrimidin-2-yl)piperidin-4-yl]methyl}nicotinamide] | 26.9
8 | Cc1noc([C@H]2CC[C@H](CNC(=O)c3ccc(-c4cccc(F)c4)nc3)CC2)n1 [Example 11, 6-(3-Fluorophenyl)-N-{[trans-4-(3-methyl-1,2,4-oxadiazol-5-yl)cyclohexyl]methyl} nicotinamide] | 18.9
9 | CC(C)N1CCC(CNC(=O)c2ccc(-c3cccc(F)c3)nc2)C1 (stereo not shown) [Example 12, 6-(3-Fluorophenyl)-N-[(1-isopropylpyrrolidin-3-yl)methyl]nicotinamide] | 117
10 | O=C(NCc1ccc[nH]c1=O)c1ccc(-c2cccc(F)c2)nc1 [Example 13, 6-(3-Fluorophenyl)-N-[(2-oxo-1,2-dihydropyridin-3-yl)methyl]nicotinamide] | 20.4
11 | O=C(NCC1CCCN(c2ccccn2)C1)c1ccc(-c2cccc(F)c2)nc1 (stereo not shown) [Example 14, 6-(3-Fluorophenyl)-N-[(1-pyridin-2-ylpiperidin-3-yl)methyl]nicotinamide] | 9.18
12 | COCCCn1cnnc1CNC(=O)c1ccc(-c2cccc(F)c2)nc1 [Example 17, 6-(3-Fluorophenyl)-N-{[4-(3-methoxypropyl)-4H-1,2,4-triazol-3-yl]methyl}nicotinamide] | 112
13 | O=C(NCCN1CCCC(CO)C1)c1ccc(-c2cccc(F)c2)nc1 (stereo not shown) [Example 18, 6-(3-Fluorophenyl)-N-{2-[3-(hydroxymethyl)piperidin-1-yl]ethyl}nicotinamide] | 31.1
14 | COCCN1CC(CNC(=O)c2ccc(-c3cccc(F)c3)nc2)CC1=O (stereo not shown) [Example 20, 6-(3-Fluorophenyl)-N-{[1-(2-methoxyethyl)-5-oxopyrrolidin-3-yl]methyl}nicotinamide] | 35.1
15 | CCCOCCCNC(=O)c1ccc(-c2cccc(F)c2)nc1 [Example 22, 6-(3-Fluorophenyl)-N-(3-propoxypropyl)nicotinamide] | 13.8
16 | Cn1ccnc1C(NC(=O)c1ccc(-c2cccc(F)c2)nc1)c1c(F)cccc1F (stereo not shown) [Example 25, N-[(2,6-Difluorophenyl)(1-methyl-1H-imidazol-2-yl)methyl]-6-(3-fluorophenyl)nicotinamide] | 399
17 | O=C(NCC1(O)CCCCC1)c1ccc(-c2cccc(F)c2)nc1 [Example 26, 6-(3-Fluorophenyl)-N-[(1-hydroxycyclohexyl)methyl] nicotinamide] | 41.8
18 | CCOC(=O)CC[C@H](NC(=O)c1ccc(-c2cccc(F)c2)nc1)C(=O)OCC [Example 27, Diethyl N-{[6-(3-fluorophenyl)pyridin-3-yl]carbonyl}-L-glutamate] | 4.29
19 | CS(=O)(=O)CCNC(=O)c1ccc(-c2cccc(F)c2)nc1 [Example 28, 6-(3-Fluorophenyl)-N-[2-(methylsulfonyl)ethyl] nicotinamide] | 47.1
20 | NC(=O)[C@H](Cc1ccccc1)NC(=O)c1ccc(-c2cccc(F)c2)nc1 [Example 29, Nalpha-{[6-(3-fluorophenyl)pyridin-3-yl]carbonyl} phenylalaninamide] | 17.6
21 | COc1ccc(CCc2nnc(CNC(=O)c3ccc(-c4cccc(F)c4)nc3)[nH]2)cc1 [Example 31, 6-(3-Fluorophenyl)-N-({5-[2-(4-methoxyphenyl)ethyl]-4H-1,2,4-triazol-3-yl}methyl)nicotinamide] | 35
22 | CCOCC(O)CNC(=O)c1ccc(-c2cccc(F)c2)nc1 (stereo not shown) [Example 34, N-(3-Ethoxy-2-hydroxypropyl)-6-(3-fluorophenyl)nicotinamide] | 73.4
23 | O=C(NCCc1nc(CN2CCOCC2)no1)c1ccc(-c2cccc(F)c2)nc1 [Example 35, 6-(3-Fluorophenyl)-N-{2-[3-(morpholin-4-ylmethyl)-1,2,4-oxadiazol-5-yl]ethyl}nicotinamide] | 50.8

The remaining compounds from weak to strong by IC50, led by results:

Row | IC50 [nM] | Compound
24 | 374 | 6-(3-Fluorophenyl)-N-{[1- (2-methoxyethyl)piperidin- 3-yl]methyl}nicotinamide [Example 438]
25 | 117 | COCCN1CCC(CNC(=O)c2ccc(-c3cccc(F)c3)nc2)CC1 [Example 19, 6-(3-Fluorophenyl)-N-{[1-(2-methoxyethyl)piperidin-4-yl]methyl}nicotinamide]
26 | 106 | COCCn1cnnc1CNC(=O)c1ccc(-c2cccc(F)c2)nc1 [Example 23, 6-(3-Fluorophenyl)-N-{[4-(2-methoxyethyl)-4H-1,2,4-triazol-3-yl]methyl}nicotinamide]
27 | 70.9 | O=C(NC(c1ccccc1)c1nc(CN2CCOCC2)no1)c1ccc(-c2cccc(F)c2)nc1 (stereo not shown) [Example 15, 6-(3-Fluorophenyl)-N-{[3-(morpholin-4-ylmethyl)-1,2,4-oxadiazol-5-yl](phenyl)methyl}nicotinamide]
28 | 59.9 | 6-(3-Fluorophenyl)-N-[2- hydroxy-2-(1-methyl-1H- imidazol-2- yl)ethyl]nicotinamide [Example 4]
29 | 51 | 6-(3-Fluorophenyl)-N-{[4-(4- methoxybenzoyl)-5- oxomorpholin-2- yl]methyl}nicotinamide [Example 72]
30 | 41 | O=C(CC(NC(=O)c1ccc(-c2cccc(F)c2)nc1)C1CC1)NCC1CC1 (stereo not shown) [Example 30, N-{1-Cyclopropyl-3-[(cyclopropylmethyl)amino]-3-oxopropyl}-6-(3-fluorophenyl)nicotinamide]
31 | 38.8 | Cc1cc(=O)[nH]c(NCCNC(=O)c2ccc(-c3cccc(F)c3)nc2)n1 [Example 7, 6-(3-Fluorophenyl)-N-{2-[(4-methyl-6-oxo-1,6-dihydropyrimidin-2-yl)amino]ethyl}nicotinamide]
32 | 31.1 | O=C(NCCN1CCC(O)CC1)c1ccc(-c2cccc(F)c2)nc1 [Example 32, 6-(3-Fluorophenyl)-N-[2-(4-hydroxypiperidin-1-yl)ethyl]nicotinamide]
33 | 27.7 | COCc1cc(CNC(=O)c2ccc(-c3cccc(F)c3)nc2)n[nH]1 [Example 36, 6-(3-Fluorophenyl)-N-{[5-(methoxymethyl)-1H-pyrazol-3-yl]methyl}nicotinamide]
34 | 20.2 | CC(CCCC(C)(C)O)NC(=O)c1ccc(-c2cccc(F)c2)nc1 (stereo not shown) [Example 24, 6-(3-Fluorophenyl)-N-(5-hydroxy-1,5-dimethylhexyl)nicotinamide]
35 | 15.8 | CC(C)OCCCNC(=O)c1ccc(-c2cccc(F)c2)nc1 [Example 37, 6-(3-Fluorophenyl)-N-(3-isopropoxypropyl) nicotinamide]
36 | 4.94 | COc1cc(CCNC(=O)c2ccc(-c3cccc(F)c3)nc2)cc(OC)c1O [Example 21, 6-(3-Fluorophenyl)-N-[2-(4-hydroxy-3,5-dimethoxyphenyl)ethyl] nicotinamide]
37 | 4.86 | O=C(NCCCn1nnc2ccccc21)c1ccc(-c2cccc(F)c2)nc1 [Example 5, N-[3-(1H-Benzotriazol-1-yl)propyl]-6-(3-fluorophenyl)nicotinamide]
38 | 4.1 | COc1ccccc1-c1nnc(CCNC(=O)c2ccc(-c3cccc(F)c3)nc2)o1 [Example 16, 6-(3-Fluorophenyl)-N-{2-[5-(2-methoxyphenyl)-1,3,4-oxadiazol-2-yl]ethyl}nicotinamide]
39 | 3.53 | Cc1nc(CCNC(=O)c2ccc(-c3cccc(F)c3)nc2)cs1 [Example 2, 6-(3-Fluorophenyl)-N-[2-(2-methyl-1,3-thiazol-4-yl)ethyl]nicotinamide]
40 | 2.72 | COc1cccc(CNC(=O)c2ccc(-c3cccc(F)c3)nc2)c1OC [Example 33, N-(2,3-Dimethoxybenzyl)-6-(3-fluorophenyl)nicotinamide]
